Here are results for 27 compounds from patent US11274111B2, “Arginase inhibitors and methods of use” (Merck Sharp & Dohme Corp., priority 2018, dated 2022).

In the assay the target is T1, Arginase (Homo sapiens, UniProt P05089).
T1 construct: Arginase protein was recombinantly expressed in Escherichia coli
T1 sequence (P05089 1-322): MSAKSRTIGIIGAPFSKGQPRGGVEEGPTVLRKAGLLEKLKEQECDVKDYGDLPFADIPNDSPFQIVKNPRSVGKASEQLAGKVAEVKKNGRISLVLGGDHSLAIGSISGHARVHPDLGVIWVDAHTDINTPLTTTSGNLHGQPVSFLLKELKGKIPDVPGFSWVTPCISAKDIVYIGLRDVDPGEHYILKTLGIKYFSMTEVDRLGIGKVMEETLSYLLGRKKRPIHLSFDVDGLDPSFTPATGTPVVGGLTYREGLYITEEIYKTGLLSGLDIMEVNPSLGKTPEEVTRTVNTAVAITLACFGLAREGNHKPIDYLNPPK
Briefly: Arginase Thioornithine Generating Assay (TOGA). Format: biochemical. The note with it: for inhibition at 16 µM: Top Dose 16000 nM; for IC50: recombinant arginase 1.88 nM, thioarginine substrate. As to the method: Arginase Thioornithine Generating Assay (TOGA)
Compounds were serially diluted in ten 3-fold steps in DMSO starting from 10 mM DMSO stocks. Compound dilutions or DMSO alone were then dispensed from the dilution plate into a Greiner black 384-well assay plate (catalog #781086) using an Echo 555 acoustic liquid handler (Labcyte).
Arginase protein was recombinantly expressed in Escherichia coli. Purified protein was then diluted in assay buffer (50 mM Tris pH 7.5, 50 mM NaCl, 1 mM manganese chloride, 0.05% bovine serum albumin to obtain a final Arginase concentration of 1.88 nM. Arginase solution (20 μL) or buffer alone (20 μL) were dispensed to wells of the assay plate using a BioRAPTR liquid dispenser (Beckman Coulter). Assay plates containing compound and arginase enzyme were incubated at room temperature for 30 minutes. Afterwards, 5 μL of 2.5 mM thioarginine (Cayman Chemicals) in assay buffer were added to each well of the assay plate using a BioRAPTR liquid dispenser. Plates were incubated at room temperature for 60 minutes and reactions were quenched by addition of 15 μL of 200 uM 7-Diethylamine-3-(4-maleimidophenyl)-4-methylcoumarin (Sigma Chemical) in 70% ethanol. Plates were briefly shaken to mix and the fluorescence was measured in an Spectramax plate reader (Molecular Devices) with a 410 nm excitation wavelength and an 490 nm emission wavelength.
Potencies were calculated by […] to the four parameter logistic IC50 equation.

[1] abbreviates: Top Dose 10000 nM, read-out: Percent Inhibition at Top Dose.
Setting [2] is: read-out: Percent Inhibition at Top Dose.

Like-named read-outs stand apart in the source and are kept apart here.

Consider `N[C@@]1(C(=O)O)C[C@H]2CNC[C@H]2[C@@H]1CCCB(O)O` [Example 1a], for which, for the setting “Top Dose 100000 nM, read-out: Percent Inhibition at Top Dose”, the inhibition at 100 µM was determined as 104%.

On to `NC1(C(=O)O)CC2CN(S(N)(=O)=O)CC2C1CCCB(O)O` (single isomer, unassigned) [Example 18a, 5-amino-4-(3-boronopropyl)-2-sulfamoyloctahydrocyclopenta[c]pyrrole-5-carboxylic acid], for which the inhibition at 10 µM under setting [1] worked out at 100%. Still for that read-out and setting: with `CN(C)C[C@]12C[C@H]1CC(CCCB(O)O)C2(N)C(=O)O` (stereo partly drawn) [Example 33a, (1S,5R)-2-amino-3-(3-boronopropyl)-1-((dimethylamino)methyl)bicyclo[3.1.0]hexane-2-carboxylic acid] the figure was 62.7%; with `CC(C)N1C[C@@H]2C[C@@](N)(C(=O)O)[C@@H](CCCB(O)O)[C@@H]2C1` [Example 8, (3aR,4S,5S,6aR)-5-amino-4-(3-boronopropyl)-2-isopropyloctahydrocyclopenta[c]pyrrole-5-carboxylic acid], 74.8%. As to `CN1C[C@@H]2C[C@@](N)(C(=O)O)[C@@H](CCCB(O)O)[C@@H]2C1` [Example 2, (3aR,4S,5S,6aR)-5-amino-4-(3-boronopropyl)-2-methyloctahydrocyclopenta[c]pyrrole-5-carboxylic acid], the IC50 amounted to 82.7 nM. In addition, the inhibition at 16 µM under setting [2] worked out at 82.6%. Turning to “(1S,2S,3aR,5S,6aR)-2-amino-1-(3-boronopropyl)-5-(methylamino)octahydropentalene-2-carboxylate [Example 51b]”, the IC50 is 20.5 nM. Further, the “Percent Inhibition at Top Dose” value (Top Dose 10000 nM) turned out to be 98.67%. For the compound `CN1CC[C@@H]2[C@H]1C[C@@H](CCCB(O)O)C2(N)C(=O)O` (relative stereo) [Example 32, rel-(3aR,5R,6aR)-4-amino-5-(3-boronopropyl)-1-methyloctahydrocyclopenta[b]pyrrole-4-carboxylic acid], the inhibition at 10 µM under setting [1] was 97.2%.

Regarding `NC1(C(=O)O)C(CCCB(O)O)C[C@H]2CNC[C@H]21` (mixture of isomers) [Example 28, rac-(3aS,6aR)-4-amino-5-(3-boronopropyl)octahydrocyclopenta[c]pyrrole-4-carboxylic acid], the inhibition at 10 µM under setting [1] is 90.4%. Same read-out and setting: to `NC1(C(=O)O)CC2(CCNC2)OC1CCCB(O)O` (stereo not shown) [Example 41, 3-amino-2-(3-boronopropyl)-1-oxa-7-azaspiro[4.4]nonane-3-carboxylic acid] belongs 97.7%.

In the case of `CN[C@@H]1C[C@@H]2C[C@@](N)(C(=O)O)[C@@H](CCCB(O)O)[C@@H]2C1` [Example 51a, (1S,2S,3aR,5R,6aR)-2-amino-1-(3-boronopropyl)-5-(methylamino)octahydropentalene-2-carboxylic acid], the IC50 was 33 nM. For the same compound, the inhibition at 10 µM under setting [1] was 99.6%. Regarding `N[C@]1(C(=O)O)[C@H](CCCB(O)O)C[C@H]2NCC[C@H]21` [Example 20b, (3aR,4R,5R,6aR)-4-amino-5-(3-boronopropyl)octahydrocyclopenta[b]pyrrole-4-carboxylic acid], where the note is “read-out: Percent Inhibition at Top Dose, Top Dose 10000 nM”, the inhibition at 10 µM stood at 101%. In the case of `NC1(C(=O)O)CC2(CNC2)CC1CCCB(O)O` (stereo not shown) [Example 35a, 6-amino-7-(3-boronopropyl)-2-azaspiro[3.4]octane-6-carboxylic acid], the IC50 turned out to be 237 nM. In addition, the inhibition at 10 µM under setting [1] came out at 99.7%. Turning to `NC1(C(=O)O)c2cnccc2CC1CCCB(O)O` (stereo not shown) [Example 30, 7-amino-6-(3-boronopropyl)-6,7-dihydro-5H-cyclopenta[c]pyridine-7-carboxylic acid], the inhibition at 10 µM under setting [1] turned out to be 87.3%. Turning to “(1S,2S,3aR,4S,5R,6aS)-2-amino-1-(3-boronopropyl)-4-fluoro-5-(methylamino)octahydropentalene-2-carboxylate [Example 55a]”, the IC50 was found to be 23.2 nM. Besides, the “Percent Inhibition at Top Dose” value (Top Dose 10000 nM) is given as 103.1%. With `N=C(N)N1C[C@@H]2C[C@@](N)(C(=O)O)[C@@H](CCCB(O)O)[C@@H]2C1` (single isomer, unassigned) [Example 11a], the inhibition at 10 µM under setting [1] is 67.2%. Same read-out and setting: to `NC1(C(=O)O)C(CCCB(O)O)CC2NCCCC21` (stereo not shown) [Example 40, 5-amino-6-(3-boronopropyl)octahydro-1H-cyclopenta[b]pyridine-5-carboxylic acid] belongs 91.4%. On the same count and under the same terms, to `N[C@@]1(C(=O)O)C[C@H]2CNC(=O)[C@H]2[C@@H]1CCCB(O)O` (single isomer, unassigned) [Example 23b] belongs 38.8%. On to “(1S,2S,3aS,5R,6R,6aR)-2-amino-1-(3-boronopropyl)-6-fluoro-5-hydroxyoctahydropentalene-2-carboxylate [Example 52b]”, for which the IC50 turned out to be 37 nM. The “Percent Inhibition at Top Dose” value (Top Dose 10000 nM) came to 99.46%.

As for `NC1(C(=O)O)CN2CCNC[C@H]2C1CCCB(O)O` (stereo partly drawn) [Example 38a, (8aR)-7-amino-8-(3-boronopropyl)octahydropyrrolo[1,2-a]pyrazine-7-carboxylic acid], the inhibition at 10 µM under setting [1] was determined as 63%.

As for `NCC(=O)N1C[C@@H]2C[C@@](N)(C(=O)O)[C@@H](CCCB(O)O)[C@@H]2C1` [Example 5, (3aR,4S,5S,6aR)-5-amino-4-(3-boronopropyl)-2-glycyloctahydrocyclopenta[c]pyrrole-5-carboxylic acid], the IC50 is 160 nM. Moreover, the inhibition at 10 µM under setting [1] turned out to be 95.1%. As to `NC1(C(=O)O)CC2(CCCN2)CC1CCCB(O)O` (stereo not drawn) [Example 37a, rel-7-amino-8-(3-boronopropyl)-1-azaspiro[4.4]nonane-7-carboxylic acid], under setting [1], the inhibition at 10 µM was 98%. In the case of “(1S,2S,3aR,4S,5S,6aS)-2-amino-1-(3-boronopropyl)-4-fluoro-5-(methylamino)octahydropentalene-2-carboxylate [Example 55b]”, the IC50 stood at 14.3 nM. Further, the “Percent Inhibition at Top Dose” value (Top Dose 10000 nM) is reported as 101.7%. With `NC1(C(=O)O)c2cccnc2CC1CCCB(O)O` (stereo not shown) [Example 39, 5-amino-6-(3-boronopropyl)-6,7-dihydro-5H-cyclopenta[b]pyridine-5-carboxylic acid], the inhibition at 10 µM under setting [1] came out at 94.7%. Take `N[C@@]1(C(=O)O)C[C@H]2CN(CC(F)(F)F)C[C@H]2[C@@H]1CCCB(O)O` [Example 10, (3aR,4S,5S,6aR)-5-amino-4-(3-boronopropyl)-2-(2,2,2-trifluoroethyl)octahydrocyclopenta[c]pyrrole-5-carboxylic acid]: the IC50 was found to be 5270 nM. Under setting [1], the inhibition at 10 µM stood at 55.9%. Turning to `CN(C)CC(=O)N1C[C@@H]2CC(N)(C(=O)O)C(CCCB(O)O)[C@@H]2C1` (stereo in doubt) [Example 19, 5-amino-4-(3-boronopropyl)-2-(2-(dimethylamino)acetyl)octahydrocyclopenta[c]pyrrole-5-carboxylic acid], under setting [2], the inhibition at 16 µM stood at 82.7%. As to `N[C@@]1(C(=O)O)C[C@H]2CNC[C@H]2[C@@H]1CCCB(O)O` [Example 1e, (3aR,4S,5S,6aR)-5-amino-4-(3-boronopropyl)octahydrocyclopenta[c]pyrrole-5-carboxylic acid], the inhibition at 10 µM under setting [1] is 98.9%. Consider `C[C@H](N)C(=O)N1C[C@@H]2C[C@@](N)(C(=O)O)[C@@H](CCCB(O)O)[C@@H]2C1` [Example 4, (3aR,4S,5S,6aR)-2-(L-alanyl)-5-amino-4-(3-boronopropyl)octahydrocyclopenta[c]pyrrole-5-carboxylic acid], for which the IC50 was 108 nM. In addition, the inhibition at 10 µM under setting [1] turned out to be 97.4%.

As usually defined, the inhibition is the relative decrease from the control value, in per cent. By IC50 is commonly meant the concentration that inhibits the measured activity by half.
